The record followed here is ChEMBL document CHEMBL1154188, “Kinase inhibitor data modeling and de novo inhibitor design with fragment approaches” (J Med Chem, 2009).

In assay [1] the target is Receptor-type tyrosine-protein kinase FLT3 (Homo sapiens) (UniProt P36888). The assay is described as follows: Inhibition of recombinant FLT3 at 20 uM by [gamma-33P]ATP based assay.
Assay [2] has as its target Ribosomal protein S6 kinase beta-1 (Homo sapiens) (UniProt P23443). As to the kind of experiment: Inhibition of recombinant P70S6K at 20 uM by [gamma-33P]ATP based assay.
Assay [3] addresses T1, Serine/threonine-protein kinase Chk2 (Homo sapiens, UniProt O96017). The assay is described as follows: Inhibition of recombinant CHK2 by [gamma-33P]ATP based assay.
The target of assay [4] is T2, Hepatocyte growth factor receptor (Homo sapiens, UniProt P08581). The assay is described as follows: Inhibition of recombinant MET by [gamma-33P]ATP based assay.
For assay [5], the target named is Tyrosine-protein kinase ABL1 (Homo sapiens) (UniProt P00519). The assay is described as follows: Inhibition of recombinant ABL1 at 20 uM by [gamma-33P]ATP based assay.
Chain of Tyrosine-protein kinase ABL1 (Homo sapiens) (P00519 whole entry): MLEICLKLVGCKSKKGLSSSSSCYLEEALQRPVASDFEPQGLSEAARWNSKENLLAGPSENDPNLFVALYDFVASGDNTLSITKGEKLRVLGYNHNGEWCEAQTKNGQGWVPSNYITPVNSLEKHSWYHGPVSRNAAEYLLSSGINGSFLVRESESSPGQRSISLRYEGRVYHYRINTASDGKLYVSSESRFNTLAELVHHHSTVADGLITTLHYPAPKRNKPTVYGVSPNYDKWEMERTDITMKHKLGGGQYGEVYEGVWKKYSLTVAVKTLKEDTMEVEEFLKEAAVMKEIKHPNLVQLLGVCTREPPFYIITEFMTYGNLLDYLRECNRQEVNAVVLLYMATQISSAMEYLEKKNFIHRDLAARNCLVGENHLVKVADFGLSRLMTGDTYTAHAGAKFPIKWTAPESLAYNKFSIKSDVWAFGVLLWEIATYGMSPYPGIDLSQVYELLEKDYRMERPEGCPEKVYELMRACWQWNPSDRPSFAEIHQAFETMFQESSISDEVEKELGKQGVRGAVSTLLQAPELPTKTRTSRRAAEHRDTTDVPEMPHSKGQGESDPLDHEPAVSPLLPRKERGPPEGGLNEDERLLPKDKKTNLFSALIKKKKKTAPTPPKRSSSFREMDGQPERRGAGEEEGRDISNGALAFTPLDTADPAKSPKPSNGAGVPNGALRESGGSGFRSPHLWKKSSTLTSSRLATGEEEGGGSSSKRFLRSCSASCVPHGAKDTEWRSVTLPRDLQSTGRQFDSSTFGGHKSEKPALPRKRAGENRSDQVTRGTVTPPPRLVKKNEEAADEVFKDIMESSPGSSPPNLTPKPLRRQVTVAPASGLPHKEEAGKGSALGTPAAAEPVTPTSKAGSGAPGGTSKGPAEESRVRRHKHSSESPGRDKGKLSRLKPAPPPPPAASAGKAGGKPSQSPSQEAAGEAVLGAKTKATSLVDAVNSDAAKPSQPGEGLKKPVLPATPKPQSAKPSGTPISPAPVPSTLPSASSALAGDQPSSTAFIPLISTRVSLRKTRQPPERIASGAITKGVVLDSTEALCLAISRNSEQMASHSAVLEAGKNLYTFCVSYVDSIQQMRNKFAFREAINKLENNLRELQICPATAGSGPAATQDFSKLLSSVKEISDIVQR
The target in assay [6] is Rho-associated protein kinase 2 (Homo sapiens) (UniProt O75116). The assay is described as follows: Inhibition of recombinant ROCK2 at 20 uM by [gamma-33P]ATP based assay.
Chain of Rho-associated protein kinase 2 (Homo sapiens) (O75116 whole entry, looked up): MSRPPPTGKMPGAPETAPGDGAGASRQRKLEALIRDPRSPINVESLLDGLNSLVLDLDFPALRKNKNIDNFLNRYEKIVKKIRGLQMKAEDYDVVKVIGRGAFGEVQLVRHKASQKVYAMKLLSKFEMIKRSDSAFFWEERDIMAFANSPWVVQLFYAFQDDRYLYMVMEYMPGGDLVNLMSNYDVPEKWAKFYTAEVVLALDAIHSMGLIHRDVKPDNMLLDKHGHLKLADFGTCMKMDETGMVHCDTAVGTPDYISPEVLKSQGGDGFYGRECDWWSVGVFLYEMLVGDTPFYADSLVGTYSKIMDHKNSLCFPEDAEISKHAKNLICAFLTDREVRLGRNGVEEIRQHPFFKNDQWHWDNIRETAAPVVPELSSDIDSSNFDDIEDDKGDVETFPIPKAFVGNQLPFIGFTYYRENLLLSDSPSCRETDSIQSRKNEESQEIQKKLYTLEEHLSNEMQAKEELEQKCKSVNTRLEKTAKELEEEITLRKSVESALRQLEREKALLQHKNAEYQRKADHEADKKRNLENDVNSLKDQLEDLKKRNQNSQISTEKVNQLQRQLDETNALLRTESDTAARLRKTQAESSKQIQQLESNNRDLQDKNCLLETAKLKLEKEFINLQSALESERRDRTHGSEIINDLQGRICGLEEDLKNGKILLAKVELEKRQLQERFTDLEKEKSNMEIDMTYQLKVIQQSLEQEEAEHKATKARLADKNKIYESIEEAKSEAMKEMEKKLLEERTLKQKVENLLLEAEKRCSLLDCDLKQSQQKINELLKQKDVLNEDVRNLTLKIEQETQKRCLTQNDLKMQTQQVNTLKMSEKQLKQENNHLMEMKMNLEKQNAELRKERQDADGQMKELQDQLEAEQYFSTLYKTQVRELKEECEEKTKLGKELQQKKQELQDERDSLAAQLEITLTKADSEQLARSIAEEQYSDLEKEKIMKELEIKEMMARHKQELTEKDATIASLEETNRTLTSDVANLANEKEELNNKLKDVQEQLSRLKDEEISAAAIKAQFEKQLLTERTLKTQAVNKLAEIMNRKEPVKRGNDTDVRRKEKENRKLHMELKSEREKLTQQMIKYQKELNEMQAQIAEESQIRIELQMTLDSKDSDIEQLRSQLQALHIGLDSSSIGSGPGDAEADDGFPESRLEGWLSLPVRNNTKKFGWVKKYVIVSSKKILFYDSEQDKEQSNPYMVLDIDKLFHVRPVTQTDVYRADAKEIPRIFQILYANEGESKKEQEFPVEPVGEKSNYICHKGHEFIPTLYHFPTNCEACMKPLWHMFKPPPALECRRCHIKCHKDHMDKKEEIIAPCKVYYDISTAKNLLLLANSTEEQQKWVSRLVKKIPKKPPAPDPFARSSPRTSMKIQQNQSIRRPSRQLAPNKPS
Assay [7] concerns the target T1, Serine/threonine-protein kinase Chk2. As to the kind of experiment: Inhibition of recombinant CHK2 at 20 uM by [gamma-33P]ATP based assay.
Assay [8] addresses T2, Hepatocyte growth factor receptor. As to the kind of experiment: Inhibition of recombinant MET at 20 uM by [gamma-33P]ATP based assay.

Chain of Receptor-type tyrosine-protein kinase FLT3 (Homo sapiens) (P36888 whole entry): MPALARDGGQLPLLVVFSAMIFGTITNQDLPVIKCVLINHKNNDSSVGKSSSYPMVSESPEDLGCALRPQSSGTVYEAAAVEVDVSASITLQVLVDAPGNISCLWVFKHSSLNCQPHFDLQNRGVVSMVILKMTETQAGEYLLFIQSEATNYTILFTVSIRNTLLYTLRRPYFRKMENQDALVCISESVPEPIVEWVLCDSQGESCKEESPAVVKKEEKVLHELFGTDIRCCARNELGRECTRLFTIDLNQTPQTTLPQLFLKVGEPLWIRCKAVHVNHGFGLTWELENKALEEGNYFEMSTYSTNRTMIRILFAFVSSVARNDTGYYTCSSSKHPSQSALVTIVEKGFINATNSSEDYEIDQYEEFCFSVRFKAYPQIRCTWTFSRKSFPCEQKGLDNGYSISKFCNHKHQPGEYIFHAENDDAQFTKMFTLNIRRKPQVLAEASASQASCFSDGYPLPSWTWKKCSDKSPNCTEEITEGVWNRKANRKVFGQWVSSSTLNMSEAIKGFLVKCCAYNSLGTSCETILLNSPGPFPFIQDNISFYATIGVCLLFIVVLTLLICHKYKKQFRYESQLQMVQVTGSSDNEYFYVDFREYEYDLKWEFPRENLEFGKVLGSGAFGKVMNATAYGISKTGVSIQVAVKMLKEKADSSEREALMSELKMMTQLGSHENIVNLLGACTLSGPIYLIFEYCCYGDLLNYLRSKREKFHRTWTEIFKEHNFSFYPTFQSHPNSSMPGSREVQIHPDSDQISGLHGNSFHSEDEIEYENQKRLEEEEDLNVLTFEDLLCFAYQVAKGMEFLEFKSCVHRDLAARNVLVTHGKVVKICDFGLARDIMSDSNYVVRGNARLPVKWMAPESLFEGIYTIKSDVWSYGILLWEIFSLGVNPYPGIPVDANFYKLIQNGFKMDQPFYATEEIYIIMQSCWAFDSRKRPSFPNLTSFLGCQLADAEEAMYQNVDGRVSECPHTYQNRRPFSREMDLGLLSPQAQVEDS
T1 sequence (O96017 whole entry): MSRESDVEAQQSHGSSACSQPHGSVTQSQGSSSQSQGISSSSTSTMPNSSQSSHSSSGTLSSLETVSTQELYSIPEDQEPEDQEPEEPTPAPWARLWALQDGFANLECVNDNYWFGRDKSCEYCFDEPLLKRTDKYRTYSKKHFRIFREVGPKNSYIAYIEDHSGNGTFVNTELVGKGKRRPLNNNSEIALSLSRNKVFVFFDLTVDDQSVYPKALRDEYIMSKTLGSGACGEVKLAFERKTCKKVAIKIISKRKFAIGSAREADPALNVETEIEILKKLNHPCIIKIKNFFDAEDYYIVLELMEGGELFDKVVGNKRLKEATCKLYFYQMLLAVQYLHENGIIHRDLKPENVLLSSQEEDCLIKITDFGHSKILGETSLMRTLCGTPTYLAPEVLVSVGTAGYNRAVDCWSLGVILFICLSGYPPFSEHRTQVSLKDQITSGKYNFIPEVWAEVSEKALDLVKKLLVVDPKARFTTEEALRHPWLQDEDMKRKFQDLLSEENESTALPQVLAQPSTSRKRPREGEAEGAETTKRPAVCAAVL
Chain of Ribosomal protein S6 kinase beta-1 (Homo sapiens) (P23443 whole entry, looked up): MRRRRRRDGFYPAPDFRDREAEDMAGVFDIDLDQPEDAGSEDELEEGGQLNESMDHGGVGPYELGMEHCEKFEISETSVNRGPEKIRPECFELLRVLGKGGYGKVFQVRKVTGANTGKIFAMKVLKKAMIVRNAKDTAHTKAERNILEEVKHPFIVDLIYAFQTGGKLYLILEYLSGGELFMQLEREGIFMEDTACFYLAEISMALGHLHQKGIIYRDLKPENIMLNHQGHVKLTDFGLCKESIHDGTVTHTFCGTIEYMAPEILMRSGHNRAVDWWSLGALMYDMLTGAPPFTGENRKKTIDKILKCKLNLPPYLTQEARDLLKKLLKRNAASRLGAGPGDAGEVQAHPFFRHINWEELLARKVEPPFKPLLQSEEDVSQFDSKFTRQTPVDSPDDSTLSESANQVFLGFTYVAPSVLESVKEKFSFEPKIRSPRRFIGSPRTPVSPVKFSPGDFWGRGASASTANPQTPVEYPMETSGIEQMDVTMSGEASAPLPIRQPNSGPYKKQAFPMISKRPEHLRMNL

One may read the inhibition as the change of the read-out against control, counted positive when it falls. The IC50 is the concentration needed to halve the response being measured. Take `Nc1ncc(-c2ccc(C(=O)NCC3CCCNC3)cc2)nc1Oc1ccc2cc[nH]c2c1` (stereo unspecified): the inhibition came out at 99% in assay [1]; 101% in assay [2]; 81% in assay [5]; 98% in assay [6]; 98% in assay [7]; 65% in assay [8]. Also, the IC50 in assay [3] was 890 nM; in assay [4], 7090 nM.
On to `Nc1ncc(-c2ccc(C(=O)N[C@@H]3CCNC3)cc2)nc1Oc1ccc2cc[nH]c2c1`, for which the inhibition in assay [1] worked out at 86%; in assay [2], 100%; in assay [5], 84%; in assay [6], 37%; in assay [7], 96%; in assay [8], 65%. The IC50 is 610 nM in assay [3] and 13700 nM in assay [4].
In the case of `Nc1ncc(-c2ccc(C(=O)NCC3CCNCC3)cc2)nc1Oc1ccc2cc[nH]c2c1`, the inhibition stood at 94% in assay [1]; 92% in assay [2]; 94% in assay [5]; 98% in assay [6]; 97% in assay [7]; 96% in assay [8]. In addition, the results for the half-inhibitory concentration (IC50) in assay [3] and in assay [4] were 1120 nM and 3330 nM, respectively.
For `CC(Oc1nc(-c2ccc(C(=O)NCC3CCCNC3)cc2)cnc1N)c1c(Cl)cccc1Cl` (stereo unspecified), the inhibition turned out to be 61% in assay [1]; 45% in assay [2]; 11% in assay [5]; 42% in assay [6]; 60% in assay [7]; 53% in assay [8]. Besides, the IC50 in assay [3] came to 1130 nM; in assay [4], 1210 nM.
As to `Nc1ncc(-c2ccc(C(=O)NCC3CCNC3)cc2)nc1Oc1ccc2cc[nH]c2c1` (stereo unspecified), the inhibition in assay [1] is 93%; in assay [2], 89%; in assay [5] it was 87%; in assay [6], 98%; in assay [7] it was 98%; in assay [8] it was 75%. Further, the IC50 was 580 nM in assay [3] and 3550 nM in assay [4].
With `Nc1ncc(-c2ccc(C(=O)NCC3CCCN3)cc2)nc1Oc1ccc2cc[nH]c2c1` (stereo unspecified), the inhibition in assay [1] was determined as 100%; in assay [2], 86%; in assay [5], 87%; in assay [6], 97%; in assay [7], 98%; in assay [8], 77%. Besides, the values for the IC50 in assay [3] and in assay [4] were 960 nM and 4270 nM, respectively.
`Nc1ncc(-c2ccc(C(=O)NC3CCNCC3)cc2)nc1Oc1ccc2cc[nH]c2c1`: the inhibition in assay [1] is 102%; in assay [2], 98%; in assay [5], 85%; in assay [6] it was 99%; in assay [7], 98%; in assay [8] it was 73%. Besides, the figures for the IC50 in assay [3] and in assay [4] were 800 nM and 5520 nM, respectively.
